In one experiment the test system is adenomatous polyps. As to the kind of experiment: Confocal microscopy of polyp biopsy after in vivo peptide administration. Also noted: species or system CPC;Apc mice. The following applies: biopsy after in vivo FITC-peptide administration. The procedure:
Preferential binding of Peptide compared to the Control peptide 1 on the adenomatous polyps was confirmed with confocal microscopy. A polyp biopsy was taken after 5′-FITC-labeled peptide administration in vivo, incubated in 1 μg/mL Hoechst dye for 5 minutes to stain living nuclei, rinsed 3× with 1×PBS and imaged on a Leica Confocal Microscope (Leica Microsystems, Bannockburn, Ill.).

For a further experiment, the system named is excised polyps. As to the kind of experiment: Ex vivo peptide binding to excised polyps. Also noted: species or system CPC;Apc mice. The following applies: 100 μM, 5 min. The procedure: Polyps from CPC;Apc mice (n=3 mice, 5 polyp pairs) were excised and washed 3× in PBS. The polyps were incubated in 100 μM peptide solution for 5 minutes and subsequently washed 3× with 1×PBS. Polyps were grossly imaged using the small animal endoscope to view binding to the polyp as a whole. Pairs of polyps (one candidate, one control) were imaged at a time to allow for the calculation of a candidate peptide to Control peptide 1 binding ratio for each pair analyzed. An average binding ratio was calculated ± one standard deviation. A similar procedure to determine mean grey scale values for image analysis was followed for the ex vivo polyps as described above for the in vivo polyps.

Where no end group is shown, it is not given here.

With “QPIHPNNM (also: FITC or Cy5.5 label) [Peptide 1, tested FITC- or Cy5.5-labeled]”, in the experiment on adenomatous polyps, the “binding to adenomas, confocal images of biopsied polyps” value is “bound more to adenomas than the Control peptide 1”. In addition, the “increase in binding compared to Control peptide 1” value in the experiment with excised polyps is on record as roughly 2 fold.

Source of the values: patent US8901276B2, “Peptide reagents and methods for detection of colon dysplasia” (The Regents of the University of Michigan, priority 2010, dated 2014).
